Results from patent US20230190852A1, “COMPOSITIONS AND METHODS FOR JOINT HEALTH” (Unigen, Inc., priority 2013, published 2023).
Marks after values point to notes of the source that are not given here.

Columns and labels:
[1] = system: Rabbit cartilage explants; experiment: Ex vivo glycosaminoglycans (GAG) release assay; format: cell-based; conditions: for activity at 6.25 µg/mL / activity at 12.5 µg/mL / activity at 25 µg/mL / activity at 50 µg/mL / activity at 100 µg/mL: Oryctolagus cuniculus, 24 h; for activity at 6.25 µg/mL: 6.25 μg/ml; for activity at 12.5 µg/mL: 12.5 μg/ml; for activity at 25 µg/mL: 25 μg/ml; for activity at 50 µg/mL: 50 μg/ml; for activity at 100 µg/mL: 100 μg/ml; for protective effect on rhIL-1α-mediated PG degradation / GAG release: rhIL-1α 5 ng/ml
Description: Articular cartilage from hock joints of rabbits (2.5 kg body weight) was removed immediately after each animal was sacrificed and articular cartilage explants were obtained by following the method described by Sandy et al. (Biochem. Biophy Acta 543:36, 1978). Briefly, after the articular surfaces were surgically exposed under sterile conditions, approximately 200-220 mg articular surfaces per joint were dissected and submerged into complete medium (DMEM, supplemented with heat inactivated 5% FBS; penicillin 100 U/ml; streptomycin 100 ug/ml). They were then rinsed several times with the complete medium and incubated for 1 to 2 days at 37° C. in a humidified 5% CO2/95% air incubator for stabilization. The complete medium was replaced with a basal medium (DMEM, supplemented with heat-inactivated 1% FBS, 10 mM HEPES, and penicillin 100 U/ml streptomycin 100 μg/ml). Approximately 30 mg cartilage pieces (2×3×0.35 mm/piece) were placed in 24-well plates and treated with given concentrations of test agents. After pretreatment for 1 h, 5 ng/ml of rhIL-1α was added to the culture medium and further incubated at 37° C. in a humidified 5% CO2/95% air incubator. The culture medium was collected 24 h later and stored at −20° C. until assay.
The amount of sulphated GAGs (e.g., released from proteoglycans) in the medium at the end of the reaction reflects the amount of articular cartilage degradation, which was determined using the commercially available 1,9-dimethy-methylene blue method according to the instructions of the manufacturer (Blyscan™ assay, Accurate Chemical and Scientific Corp., Westbury, N.Y.).

Sprague-Dawley (SD) rats = experiment: Monosodium iodoacetate (MIA) induced osteoarthritis rat model; format: in vivo; conditions: for reduction in pain sensitivity: 10 mg/kg oral per day; for Pain sensitivity, % (of week 0 mean) / Pain sensitivity, Mean: oral 10 mg/kg
Description: The animals were randomized and assigned to treatment groups before the study began. After anesthetization with isoflurane, rats were injected with 50 μl containing 1 mg Monosodium iodoacetate (Sigma, St. Louis, Mo.; lot #SLBB6147V) using a 26 gauge needle inserted through the patellar ligament into the intra-articular space of the right knee. Normal rats were injected with an equivalent volume of saline instead of MIA. […] The first sample treatment was administered 1 hr before MIA injection. Normal and control rats were given orally an equal volume of vehicle (0.5% CMC in saline). Body weight and allodynia were measured once a week for 4 weeks. Allodynia was evaluated by measuring responsiveness to a tip of Randall-Selitto test (2390 series, IITC, Woodland Hills, Calif.) applied perpendicular to the central plantar surface of the right hind paw.
Male Sprague—Dawley (SD) rats weighing about 170 to about 230 g (6 weeks of age) were purchased and acclimated for one week. […] Each group was orally gavaged with their respective treatment. Anesthetized rats were injected with 0.8 mg of MIA in a 50 μl saline solution into the intra-articular pocket one hour after the second dose of treatments. Pain sensitivity was measured once a week using a Randall-Salitto meter and treatment lasted for 6 weeks. Body weights were measured once a week to calculate the respective weekly dosage of each group.

Lewis rats = experiment: Carrageenan-induced rat paw edema model (paw edema and pain sensitivity); format: in vivo; conditions: for Pain sensitivity (Analgesia), percent change vs. vehicle, 1 hr / Paw Edema (Inflammation), percent change vs. vehicle, 1 hr: 1 hr after treatment; for Pain sensitivity (Analgesia), percent change vs. vehicle, 3 hr / Paw Edema (Inflammation), percent change vs. vehicle, 3 hr: 3 hr after treatment; for Pain sensitivity (Analgesia), percent change vs. vehicle, 5 hr / Paw Edema (Inflammation), percent change vs. vehicle, 5 hr: 5 hr after treatment; for analgesic and anti-inflammatory activity: oral, rosmarinic acid 200 mg/kg, eriocitrin 100 mg/kg, NAG 166 mg/kg; for Pain sensitivity, percent change of vehicle / Paw edema, percent change of vehicle: 100 mg/kg oral 1 hr after carrageenan, female Lewis rats
Description: Local inflammation was induced by intraplantar injection of carrageenan λ (Sigma, St. Louis, Mo.; 100 μl of 1% [w/v] in saline) into the plantar surface of right hind paw of sedated rat (with 2.5% isoflurane) at time 0 (T=0) (Gamache et al., J Neurosurg. 65:679, 1986; Guay et al., J. Biol. Chem. 279:24866, 2004; Chou et al., Anesth. Analg. 97:1724, 2003). Rats were acclimated in a procedure room for 20-30 minutes before each measurement was taken. Allodynia was evaluated by measuring responsiveness to the tip of a Randell-Selitto paw pressure test applied perpendicular to the central plantar surface of the right hind paw. A positive response to the applied pressure, noted by sharp withdrawal of the paw, was recorded automatically by an electronic Von Frey Anesthesiometer (2390 series Electrovonfrey, IITC, Woodland Hills, Calif.) (Vivancos et al., Braz. J. Med. Biol. Res. 37:391, 2004). Mechanical allodynia was evaluated before carrageenan inoculation, and thereafter at 1 hr, 2 hr, 4 hr and 6 hr. Paw edema volume was measured with the use of Plethysmometer (IITC, Woodland Hills, Calif.; Model 520) at time 0 (before carrageenan), and then 1 hr, 2 hr, 4 hr, and 6 hr after carrageenan injection. Animals (N=5 per group) were orally gavaged with a positive control ibuprofen (Spectrum Chemical MFG, Gardena, Calif.) (100 or 200 mg/kg); test articles such as: extracts, and combinations of extracts at various doses from 100, 200, 300 to 400 mg/kg and vehicle control (propylene glycol) were given 1 hour after carrageenan inoculation unless specified otherwise.

[2] = rabbit cartilage explants with rhIL-1α 5 ng/ml (=100)
[3] = MIA OA rats, 10 mg/kg oral, 6 weeks, modified Mankin scoring
[4] = 100 mg/kg oral, listed as eriocitrin
[5] = rhIL-1α 5 ng/ml (IL-1α alone = 100)

SMILES: COc1cc(O)c(CC=C(C)C)c(O)c1C(=O)/C=C/c1ccc(O)cc1 [Compound 13, xanthohumol]
- activity at 6.25 µg/mL [1, 2]: 77.4%
- activity at 12.5 µg/mL [1, 2]: 55.3%
- activity at 25 µg/mL [1, 2]: 59.2%
- activity at 50 µg/mL [1, 2]: 51.2%

SMILES: COc1cc(O)c(CC=C(C)C)c2c1C(=O)CC(c1ccc(O)cc1)O2 (centres unmarked) [Compound 14, isoxanthohumol]
- activity at 6.25 µg/mL [1, 2]: 97.8%
- activity at 12.5 µg/mL [1, 2]: 73.5%
- activity at 25 µg/mL [1, 2]: 41.7%
- activity at 50 µg/mL [1, 2]: 37.3%

SMILES: CC(C)=CCC12Oc3c(c(O)cc(O)c3C3C=C(C)CC(c4ccc(O)cc4O)C3C(=O)c3ccc(O)cc3O)C(=O)C1(O)Oc1cc(O)ccc12 (centres unmarked) [Compound 15, cathayanon A]
- activity at 6.25 µg/mL [1, 2]: 101%
- activity at 12.5 µg/mL [1, 2]: 99.1%
- activity at 25 µg/mL [1, 2]: 81.3%
- activity at 50 µg/mL [1, 2]: 72.4%

SMILES: O=C(O)Cc1ccccc1Nc1c(Cl)cccc1Cl [Diclofenac]
- reduction in pain sensitivity (Sprague-Dawley (SD) rats; week 5): 20.8%
- reduction in pain sensitivity (Sprague-Dawley (SD) rats; week 6): 18.2%
- articular cartilage matrix integrity, total Mankin score vs. vehicle (Sprague-Dawley (SD) rats; G:M 500 mg/kg, Diclofenac 10 mg/kg, 6 weeks): not statistically significant
- Total Mankin Score (Sprague-Dawley (SD) rats; MIA OA rats, 10 mg/kg oral, 6 weeks): 4.9 ± 2.69
- Cellular Abnormality (0-3) histopathological score (Sprague-Dawley (SD) rats; [3]): 1.3 ± 0.67
- Safranin-O Staining (0-4) histopathological score (Sprague-Dawley (SD) rats; [3]): 1.7 ± 0.82
- Pain sensitivity, % (of week 0 mean) (Sprague-Dawley (SD) rats; MIA OA rats, Week 0): 100.00%
- Pain sensitivity, Mean (Sprague-Dawley (SD) rats; MIA OA rats, Week 0, Randall-Salitto meter): 173.20
- Pain sensitivity, % (of week 0 mean) (Sprague-Dawley (SD) rats; MIA OA rats, Week 1): 84.51%
- Pain sensitivity, Mean (Sprague-Dawley (SD) rats; MIA OA rats, Week 1, Randall-Salitto meter): 146.37
- Pain sensitivity, % (of week 0 mean) (Sprague-Dawley (SD) rats; MIA OA rats, Week 2): 89.88%
- Pain sensitivity, Mean (Sprague-Dawley (SD) rats; MIA OA rats, Week 2, Randall-Salitto meter): 155.67
- Pain sensitivity, % (of week 0 mean) (Sprague-Dawley (SD) rats; MIA OA rats, Week 3): 94.05%
- Pain sensitivity, Mean (Sprague-Dawley (SD) rats; MIA OA rats, Week 3, Randall-Salitto meter): 162.90
- Pain sensitivity, % (of week 0 mean) (Sprague-Dawley (SD) rats; MIA OA rats, Week 4): 87.12%
- Pain sensitivity, Mean (Sprague-Dawley (SD) rats; MIA OA rats, Week 4, Randall-Salitto meter): 150.90
- Pain sensitivity, % (of week 0 mean) (Sprague-Dawley (SD) rats; MIA OA rats, Week 5): 84.43%
- Pain sensitivity, Mean (Sprague-Dawley (SD) rats; MIA OA rats, Week 5, Randall-Salitto meter): 146.23
- Pain sensitivity, % (of week 0 mean) (Sprague-Dawley (SD) rats; MIA OA rats, Week 6): 83.28%
- Pain sensitivity, Mean (Sprague-Dawley (SD) rats; MIA OA rats, Week 6, Randall-Salitto meter): 144.23

SMILES: C[C@@H]1O[C@@H](OC[C@H]2O[C@@H](Oc3cc(O)c4c(c3)O[C@H](c3ccc(O)c(O)c3)CC4=O)[C@H](O)[C@@H](O)[C@@H]2O)[C@H](O)[C@H](O)[C@H]1O [Eriocitrin]
- Pain sensitivity (Analgesia), percent change vs. vehicle, 1 hr (Lewis rats; 100 mg/kg oral): 20.4* %
- Paw Edema (Inflammation), percent change vs. vehicle, 1 hr (Lewis rats; 100 mg/kg oral): 17.2%
- Pain sensitivity (Analgesia), percent change vs. vehicle, 1 hr (Lewis rats; [4]): 20.4%
- Pain sensitivity (Analgesia), percent change vs. vehicle, 3 hr (Lewis rats; 100 mg/kg oral): 36.4* %
- Paw Edema (Inflammation), percent change vs. vehicle, 3 hr (Lewis rats; 100 mg/kg oral): 36.0* %
- Pain sensitivity (Analgesia), percent change vs. vehicle, 3 hr (Lewis rats; [4]): 36.4%
- Paw Edema (Inflammation), percent change vs. vehicle, 3 hr (Lewis rats; [4]): 36.0%
- Pain sensitivity (Analgesia), percent change vs. vehicle, 5 hr (Lewis rats; 100 mg/kg oral): 25.2* %
- Paw Edema (Inflammation), percent change vs. vehicle, 5 hr (Lewis rats; 100 mg/kg oral): 30.0* %
- Pain sensitivity (Analgesia), percent change vs. vehicle, 5 hr (Lewis rats; [4]): 25.2%
- Paw Edema (Inflammation), percent change vs. vehicle, 5 hr (Lewis rats; [4]): 30.0%
- analgesic and anti-inflammatory activity (Lewis rats): significant anti-inflammatory and analgesic activities

SMILES: CC(C)=CCc1c(-c2ccc(O)cc2O)oc2c(C3C=C(C)CC(c4ccc(O)cc4O)C3C(=O)c3ccc(O)cc3O)c(O)cc(O)c2c1=O (centres unmarked) [Kuwanon G]
- Pain sensitivity, percent change of vehicle (Lewis rats; 1 hr): 33.3* %
- Paw edema, percent change of vehicle (Lewis rats; 1 hr): 36.5* %
- Pain sensitivity, percent change of vehicle (Lewis rats; 3 hr): 40.5* %
- Paw edema, percent change of vehicle (Lewis rats; 3 hr): 37.7* %
- Pain sensitivity, percent change of vehicle (Lewis rats; 5 hr): 31.2* %
- Paw edema, percent change of vehicle (Lewis rats; 5 hr): 29.3* %
- activity at 25 µg/mL [1, 5]: 56.6%
- activity at 50 µg/mL [1, 5]: 48%
- activity at 100 µg/mL [1, 5]: 44.4%

SMILES: CC(C)=CCc1c(-c2ccc(O)cc2O)oc2c3c(cc(O)c2c1=O)OC(C)(C)C=C3 [Morusin]
- Pain sensitivity, percent change of vehicle (Lewis rats; 1 hr): 33.3* %
- Paw edema, percent change of vehicle (Lewis rats; 1 hr): 37.3* %
- Pain sensitivity, percent change of vehicle (Lewis rats; 3 hr): 38.5* %
- Paw edema, percent change of vehicle (Lewis rats; 3 hr): 40.0* %
- Pain sensitivity, percent change of vehicle (Lewis rats; 5 hr): 30.2* %
- Paw edema, percent change of vehicle (Lewis rats; 5 hr): 38.0* %
- activity at 25 µg/mL [1, 5]: 48.4%
- activity at 50 µg/mL [1, 5]: 49.9%
- activity at 100 µg/mL [1, 5]: 33.6%
- protective effect on rhIL-1α-mediated PG degradation / GAG release [1]: strong inhibitory effect

SMILES: OC[C@H]1O[C@@H](Oc2cc(O)cc(/C=C/c3ccc(O[C@@H]4O[C@H](CO)[C@@H](O)[C@H](O)[C@H]4O)cc3O)c2)[C@H](O)[C@@H](O)[C@@H]1O [Mulberoside A, mulberroside A]
- Pain sensitivity, percent change of vehicle (Lewis rats; 1 hr): 54.2* %
- Paw edema, percent change of vehicle (Lewis rats; 1 hr): 48.4* %
- Pain sensitivity, percent change of vehicle (Lewis rats; 3 hr): 52.2* %
- Paw edema, percent change of vehicle (Lewis rats; 3 hr): 50.6* %
- Pain sensitivity, percent change of vehicle (Lewis rats; 5 hr): 35.5* %
- Paw edema, percent change of vehicle (Lewis rats; 5 hr): 37.3* %
- activity at 25 µg/mL [1, 5]: 73.1%
- activity at 50 µg/mL [1, 5]: 75.8%
- activity at 100 µg/mL [1, 5]: 70.5%
- protective effect on rhIL-1α-mediated PG degradation / GAG release [1]: strong inhibitory effect

SMILES: Oc1cc(O)cc(/C=C/c2ccc(O)cc2O)c1 [Oxyresveratrol]
- Pain sensitivity, percent change of vehicle (Lewis rats; 1 hr): 53.3* %
- Paw edema, percent change of vehicle (Lewis rats; 1 hr): 44.7* %
- Pain sensitivity, percent change of vehicle (Lewis rats; 3 hr): 54.8* %
- Paw edema, percent change of vehicle (Lewis rats; 3 hr): 54.5* %
- Pain sensitivity, percent change of vehicle (Lewis rats; 5 hr): 38.5* %
- Paw edema, percent change of vehicle (Lewis rats; 5 hr): 38.3* %
- activity at 25 µg/mL [1, 5]: 59.8%
- protective effect on rhIL-1α-mediated PG degradation / GAG release [1]: strong inhibitory effect

SMILES: O=C(/C=C/c1ccc(O)c(O)c1)O[C@H](Cc1ccc(O)c(O)c1)C(=O)O [RA, Rosmarinic acid]
- Pain sensitivity (Analgesia), percent change vs. vehicle, 1 hr (Lewis rats; 200 mg/kg oral): 38.9%
- Paw Edema (Inflammation), percent change vs. vehicle, 1 hr (Lewis rats; 200 mg/kg oral): 29.9%
- Pain sensitivity (Analgesia), percent change vs. vehicle, 3 hr (Lewis rats; 200 mg/kg oral): 45.0%
- Paw Edema (Inflammation), percent change vs. vehicle, 3 hr (Lewis rats; 200 mg/kg oral): 35.7%
- Pain sensitivity (Analgesia), percent change vs. vehicle, 5 hr (Lewis rats; 200 mg/kg oral): 30.6%
- Paw Edema (Inflammation), percent change vs. vehicle, 5 hr (Lewis rats; 200 mg/kg oral): 34.6%
- analgesic and anti-inflammatory activity (Lewis rats): significant anti-inflammatory and analgesic activities

SMILES: CC1(C)C=Cc2c(ccc3c2OC[C@@H](c2ccc(O)cc2O)C3)O1 [glabridin]
- activity at 6.25 µg/mL [1, 2]: 66.1%
- activity at 12.5 µg/mL [1, 2]: 47.9%
- activity at 25 µg/mL [1, 2]: 47.5%
- activity at 50 µg/mL [1, 2]: 46.3%
